Results: patent US7662778B2, “Histone deacetylase inhibitor and process for producing the same” (Riken, priority 2003, dated 2010)
Where two headings read alike, the source gives them in different places. Where a SMILES comes first, the peptide text is derived from it. [ ]: non-standard residue; d: D form. Phe(4-NH2) = Nc1ccc(C[C@H](N)C(=O)O)cc1

Assays:
human HDAC1 = biological target: T1, human HDAC1 (Homo sapiens, UniProt Q13547); assay: HDAC inhibitory activity in vitro (coumarin-labeled acetylated histone peptide), HDAC1; format: biochemical; conditions: Table 1; 37° C., 30 minutes; read-out: IC50 (μM) HDAC1
T1 construct: FLAG; made in house; host or cells: 293T cells, transient transfection; anti-FLAG immunoprecipitation and FLAG peptide elution
T1 sequence (Q13547 whole entry): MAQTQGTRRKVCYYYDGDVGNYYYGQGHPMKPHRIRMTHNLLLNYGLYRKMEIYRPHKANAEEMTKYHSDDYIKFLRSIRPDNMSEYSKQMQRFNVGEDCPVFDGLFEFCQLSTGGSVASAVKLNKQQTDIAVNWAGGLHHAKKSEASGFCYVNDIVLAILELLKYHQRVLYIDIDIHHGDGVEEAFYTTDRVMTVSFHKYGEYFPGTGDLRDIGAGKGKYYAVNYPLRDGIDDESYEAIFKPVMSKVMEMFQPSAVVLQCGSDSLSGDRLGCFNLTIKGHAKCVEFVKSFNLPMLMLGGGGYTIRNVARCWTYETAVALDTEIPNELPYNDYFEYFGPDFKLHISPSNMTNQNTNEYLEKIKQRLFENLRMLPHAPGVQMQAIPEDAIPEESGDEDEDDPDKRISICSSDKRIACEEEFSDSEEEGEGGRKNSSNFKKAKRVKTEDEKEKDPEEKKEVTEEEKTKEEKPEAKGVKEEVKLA

human HDAC4 = biological target: T2, human HDAC4 (Homo sapiens, UniProt P56524); assay: HDAC inhibitory activity in vitro (coumarin-labeled acetylated histone peptide), HDAC4; format: biochemical
T2 construct: FLAG; made in house; host or cells: 293T cells, transient transfection; anti-FLAG immunoprecipitation and FLAG peptide elution
T2 sequence (P56524 whole entry): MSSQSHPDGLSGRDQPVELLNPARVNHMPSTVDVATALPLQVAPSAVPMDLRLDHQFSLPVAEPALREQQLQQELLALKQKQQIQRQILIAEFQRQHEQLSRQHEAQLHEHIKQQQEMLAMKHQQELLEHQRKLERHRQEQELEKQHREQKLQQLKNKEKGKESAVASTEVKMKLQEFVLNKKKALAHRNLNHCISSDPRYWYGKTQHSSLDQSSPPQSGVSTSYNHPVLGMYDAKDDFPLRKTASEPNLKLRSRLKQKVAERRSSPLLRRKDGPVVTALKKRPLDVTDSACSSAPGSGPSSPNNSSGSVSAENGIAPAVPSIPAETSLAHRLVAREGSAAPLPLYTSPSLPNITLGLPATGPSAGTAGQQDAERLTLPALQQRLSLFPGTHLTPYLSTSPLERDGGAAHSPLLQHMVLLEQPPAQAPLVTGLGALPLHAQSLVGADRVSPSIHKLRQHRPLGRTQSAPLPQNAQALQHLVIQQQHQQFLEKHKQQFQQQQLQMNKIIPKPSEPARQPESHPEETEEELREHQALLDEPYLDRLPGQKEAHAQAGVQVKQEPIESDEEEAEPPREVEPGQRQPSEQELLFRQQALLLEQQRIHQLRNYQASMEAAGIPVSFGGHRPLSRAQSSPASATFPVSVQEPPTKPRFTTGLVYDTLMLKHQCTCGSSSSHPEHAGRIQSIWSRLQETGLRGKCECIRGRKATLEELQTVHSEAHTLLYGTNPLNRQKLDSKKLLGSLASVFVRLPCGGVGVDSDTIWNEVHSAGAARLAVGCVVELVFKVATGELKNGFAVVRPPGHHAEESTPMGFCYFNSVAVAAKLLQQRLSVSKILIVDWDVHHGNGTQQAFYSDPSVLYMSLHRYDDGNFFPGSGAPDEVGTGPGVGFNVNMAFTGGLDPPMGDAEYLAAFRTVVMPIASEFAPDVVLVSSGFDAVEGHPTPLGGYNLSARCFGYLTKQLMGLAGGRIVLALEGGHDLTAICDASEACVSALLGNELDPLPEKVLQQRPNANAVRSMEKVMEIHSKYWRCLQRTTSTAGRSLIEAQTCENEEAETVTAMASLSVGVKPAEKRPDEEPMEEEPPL

mouse HDAC6 = biological target: T3, mouse HDAC6 (Mus musculus, UniProt Q9Z2V5); assay: HDAC inhibitory activity in vitro (coumarin-labeled acetylated histone peptide), HDAC6; format: biochemical
T3 construct: HA; made in house; host or cells: 293T cells, transient transfection; anti-HA immunoprecipitation and HA peptide elution
T3 sequence (Q9Z2V5 1-1149): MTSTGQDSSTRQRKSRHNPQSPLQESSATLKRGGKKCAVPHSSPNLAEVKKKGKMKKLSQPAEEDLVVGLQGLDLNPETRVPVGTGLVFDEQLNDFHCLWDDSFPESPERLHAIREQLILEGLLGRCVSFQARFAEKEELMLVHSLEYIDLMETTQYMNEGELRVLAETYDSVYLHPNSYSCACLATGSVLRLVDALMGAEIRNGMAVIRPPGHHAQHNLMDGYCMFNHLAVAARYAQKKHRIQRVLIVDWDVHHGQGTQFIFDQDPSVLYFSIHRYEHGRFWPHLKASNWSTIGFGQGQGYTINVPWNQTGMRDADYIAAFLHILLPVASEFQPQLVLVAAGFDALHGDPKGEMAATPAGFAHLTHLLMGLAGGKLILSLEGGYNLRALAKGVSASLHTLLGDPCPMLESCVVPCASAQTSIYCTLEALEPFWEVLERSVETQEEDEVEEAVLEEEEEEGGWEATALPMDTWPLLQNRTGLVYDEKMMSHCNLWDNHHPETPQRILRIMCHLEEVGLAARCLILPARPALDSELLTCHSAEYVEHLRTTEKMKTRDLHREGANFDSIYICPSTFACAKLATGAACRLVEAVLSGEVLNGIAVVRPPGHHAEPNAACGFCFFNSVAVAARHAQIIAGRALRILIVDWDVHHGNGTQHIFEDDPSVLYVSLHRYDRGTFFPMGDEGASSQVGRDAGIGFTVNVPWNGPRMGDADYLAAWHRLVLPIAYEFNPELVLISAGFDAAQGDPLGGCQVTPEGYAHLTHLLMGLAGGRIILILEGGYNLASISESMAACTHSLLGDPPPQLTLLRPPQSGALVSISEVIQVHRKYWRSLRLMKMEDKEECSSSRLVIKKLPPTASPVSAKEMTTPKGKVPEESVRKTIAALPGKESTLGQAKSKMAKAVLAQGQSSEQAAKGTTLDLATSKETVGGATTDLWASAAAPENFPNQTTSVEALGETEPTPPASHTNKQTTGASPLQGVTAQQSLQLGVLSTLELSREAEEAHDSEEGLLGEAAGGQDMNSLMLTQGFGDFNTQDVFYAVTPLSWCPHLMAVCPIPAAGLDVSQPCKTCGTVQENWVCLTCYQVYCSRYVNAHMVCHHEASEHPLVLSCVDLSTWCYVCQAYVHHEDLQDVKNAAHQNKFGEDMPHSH

[1] = tested on: human wild-type p21 promoter; assay: p21 promoter-inducing activity (luciferase) in MFLL-9 cells; format: cell-based; conditions: Table 1; MFLL-9 cells, 18 hours; concentration corresponding to 50% of the maximum active value for TSA
Description: The HDAC inhibitory activity in vivo was measured using p21 promoter-inducing activity as an index, as shown below. The MFLL-9 cells employed for the experiments stably maintained fusion genes of human wild-type p21 promoter and luciferase (Dr. B. Vogelstaein). Using phenol red-free DMEM medium comprising 10% FBS, cultivation was carried out in a steam-saturated incubator at 37° C. with 5% carbon dioxide. The MFLL-9 cells were plated at a density of 85,000 cells/well on a 96-well microtiter plate, each in 99 μl of the above-mentioned medium. These were then cultivated for six hours. One μl of test compound solution was added to each well, which was then cultured for another 18 hours.
The intensity of luminescence caused by the product of the enzyme reaction for intracellular luciferase expression was measured using Luc Lite (Packard BioScience Company).
HDAC inhibitory activity in an in vivo system was measured using p21 promoter induction as index. The experimental method followed that of Example 11.

[2] = tested on: human uterine cancer cells (HeLa); assay: Cytotoxicity test (XTT), HeLa; format: cell-based; conditions: 48 hours
[3] = tested on: normal human lung cells (TIG-3)
tubulin deacetylase = assay: Tubulin and histone acetylation level in HeLa cells by western blotting; format: cell-based, human; conditions: six hours, anti-acetylated lysine antibody, FIG. 4
Description: Tubulin and histone acetylation levels were measured by: (a) reacting a test compound with HeLa cells; and (b) confirming the tubulin and histone acetylation level by western blotting using anti-acetylated lysine antibodies. Specifically, human uterine cancer cells (HeLa) were cultured in a DMEM medium supplemented with 10% FBS at 37° C. in the presence of 5% carbon dioxide in a steam-saturated incubator. Two ml of the cells at a density of 15,000 cells/ml were plated onto a 6-well plate and cultured for 18 hours. Test compound solution was added to each culture and successively cultured for another six hours. The cells were washed with PBS, suspended in a lysis buffer (50 mM Tris-HCl (pH7.5), 120 mM NaCl, 5 mM EDTA, 0.5% Nonidet P-40), and then sonicated. The supernatant was collected by centrifugation, mixed with SDS bufer, and left at 100° C. for five minutes. The resulting sample was subjected to electroplioresis on a 15% SDS gel and transferred to a membrane film. This was treated with primary antibody “AKL5C1” (Japan Energy), and secondary antibody “anti-mouse” (LIFE SCIENCE), and then acetylation bands were detected by ECL (amersham pharmacia biotech) (FIG. 4).

[4] = amide bond, 12-membered ring, HATU/DIEA, DMF, 25.0 °C
[5] = Table 1, 37° C., 30 minutes, read-out: IC50 (μM) HDAC6
[6] = read-out: IC50 (nM) TIG-3, 48 hours, XTT

Molecule	IC50 (mouse HDAC6; [5])	EC50 [1]	IC50 [2]	IC50 ([3]; 48 h)	further results
CC[C@H](C)[C@@H]1NC(=O)[C@@H](Cc2ccc(OC)cc2)NC(=O)[C@H](Cc2ccc(N)cc2)NC(=O)[C@H]2CCCN2C1=O [Aph, cyclo(-L-Aph-D-Tyr(Me)-L-Ile-D-Pro-)] (cyclo(I[dP][Phe(4-NH2)][dY](Me)))	> 500 µM	> 100 µM	> 50000 nM	> 50000 nM	IC50 (human HDAC1): > 500 µM; IC50 (human HDAC4; Table 1, 37° C., 30 minutes, read-out: IC50 (μM) HDAC4): > 500 µM
CC[C@H](C)[C@@H]1NC(=O)[C@@H](Cc2ccc(OC)cc2)NC(=O)[C@H](CCCCSCC(=O)C(F)(F)F)NC(=O)[C@H]2CCCN2C1=O [Mtfk, cyclo(-L-Am6(Tfacet)-D-Tyr(Me)-L-Ile-D-Pro-)]	0.95 µM	6.64 µM	52.5 nM	468 nM	
CC[C@H](C)[C@@H]1NC(=O)[C@@H](Cc2ccc(OC)cc2)NC(=O)[C@H](CCCCCC(=O)C(F)(F)C(F)(F)F)NC(=O)[C@H]2CCCN2C1=O [Pfek, cyclo(-L-Pfe-D-Tyr(Me)-L-Ile-D-Pro-)]		> 100 µM	616 nM		IC50 (human HDAC4): 1.22 µM; IC50 (mouse HDAC6): 5.72 µM; IC50 [3, 6]: 13400 nM
CC(/C=C/C(=O)NO)=C\[C@@H](C)C(=O)c1ccc(N(C)C)cc1 [TSA, Trichostatin A, reference compound]		0.77 µM	12.3 nM		IC50 [3, 6]: 151 nM
CC[C@H](C)[C@@H]1NC(=O)[C@@H](Cc2ccc(OC)cc2)NC(=O)[C@H](CCCCCC(=O)C(F)(F)F)NC(=O)[C@H]2CCCN2C1=O [Tfk, cyclo(-L-Tfm-D-Tyr(Me)-L-Ile-D-Pro-)]	1.44 µM	3.09 µM	8.8 nM	87.1 nM	tubulin acetylation (tubulin deacetylase inhibition in the cells) (tubulin deacetylase): induced high level of tubulin acetylation
CC[C@H](C)[C@@H]1NC(=O)[C@@H](Cc2ccc(OC)cc2)NC(=O)[C@H](CCCCCN(C=O)OCc2ccccc2)NC(=O)[C@@H]2CCCN2C1=O [cyclo(-L-Hly(For, OBzl)-D-Tyr(Me)-L-Ile-L-Pro-)]					ring closure, isolated yield ([4]; from H-dTyr(Me)-Ile-Pro-Hly(For,OBzl)-OH, 0.68 mM): 44%
CC[C@H](C)[C@@H]1NC(=O)[C@@H](Cc2ccc(OC)cc2)NC(=O)[C@H](CCCCN(C=O)OCc2ccccc2)NC(=O)[C@H]2CCCCN2C1=O [cyclo(-L-Lys(For, OBzl)-D-Tyr(Me)-L-Ile-D-Pip-)]					ring closure, isolated yield ([4]; from H-dTyr(Me)-Ile-dPip-Lys(For,OBzl)-OH?, 0.4 mM): 25%
CC[C@H](C)[C@@H]1NC(=O)[C@@H](Cc2ccc(OC)cc2)NC(=O)[C@H](CCCCN(C=O)OCc2ccccc2)NC(=O)[C@@H]2CCCCN2C1=O [cyclo(-L-Lys(For, OBzl)-D-Tyr(Me)-L-Ile-L-Pip-)]					ring closure, isolated yield ([4]; from H-dTyr(Me)-Ile-Pip-Lys(For,OBzl)-OH?, 0.4 mM): 24%
cyclo(-L-Aph-D-Tyr(Me)-L-Ile-D-Pro-)					ring closure, isolated yield ([4]; 2.7 mM, 2 steps): 11%
